Columns and labels:
Assay in all cases: Proliferation Assay (Cell Viability Assay)
Type in all cases: cell-based
[1] = test system: BT-20 (expressing wild type KRas); details: Homo sapiens; BT-20, Breast (TNBC), KRas WT
Method: (§1) Cell lines: these Human tumor-derived cell lines were purchased from American Type Culture Collection. Human tumor-derived pancreatic cancer cell line MiaPaca-2 (expressing KRAS G12C mutant) and Panc-1 (expressing KRas G12D mutant), and Human non-small cell lung cancer (NSCLC) cell line A549 (expressing KRas G12S mutant), and Human melanoma cell line A375 (wild type Kras) were grown in complete DMEM-High Glucose medium. Human tumor-derived pancreatic cancer cell lines SU86.86 (expressing KRas G12D mutant), BxPC3 (expressing wild type K-Ras), and Human non-small cell lung cancer (NSCLC) cell lines NCI-H441 (expressing KRas G12S mutant), NCI-H1975 (expressing wild type KRas), NCI-H358 (expressing KRas G12C mutant), NCI-H1299 (expressing NRas Q61H mutant), and Human colon cancer cell line SW-620 (expressing KRas G12V mutant), Human triple negative breast cancer cell line HCC-1806 (expressing wild type KRas), and Human tumor-derived multiple myeloma cell line MM.1R (expressing wild type KRAS), were grown in RPMI 1640 medium. Human tumor-derived breast cancer cell line BT-549 (expressing wild type KRAS) was grown in RPMI 1640 medium in the presence of 11.8U insulin. Human tumor-derived pancreatic cancer cell line HPAF-II (expressing KRas G12D mutant), Human triple negative breast cancer cell line BT-20 (expressing wild type KRas), and Human colon cancer cell line LS123 (expressing KRas G12S mutant), were grown in EMEM medium. Human tumor-derived pancreatic cancer cell line CF-PAC1 (expressing KRas G12V mutant) was frown in IMDM medium, and Human colon cancer cell line HT29 (expressing wild type KRas) was grown in McCoy's 5A medium. The colon cancer cell line GP2d (expressing KRas G12D mutant) was purchased from MilliporeSigma and grown in DMEM-High Glucose medium. All cell lines were supplemented with penicillin (100 U/mL), streptomycin (100 μg/mL), and 10% heat-inactivated FBS at 37° C. in a humidified incubator with 5% CO2.
(§2) Method: Cells were plated at 2000 to 5000 cells/well density in 96-wells plate and cultured overnight. Small molecules that were tested were added to the cells in the final concentration of 10 μM in the presence of 0.3% DMSO and 10% FBS, and incubated for 2-4 days at 37° C. in a humidified incubator with 5% CO2. For IC50 value determination, serial dilutions of compounds were added to cells under the same conditions.
(§3) Assay: At the end of the incubation period, cell viability was determined using the CellTiter 96® Aqueous One Solution Cell Proliferation Assay according to manufacturer specifications (Promega, Madison, WI). The percentage of small molecules inhibition of cellular proliferation was calculated from raw data.

[2] = test system: BxPC3 (expressing wild type K-Ras); details: Homo sapiens, BXPC-3; BxPC3, pancreatic, KRas WT
Method: as §1, §2, §3

[3] = test system: CF-PAC1 (expressing KRas G12V mutant); details: Homo sapiens, CFPAC-1, CF-PAC1, pancreatic
Method: as §1, §2, §3

[4] = test system: HT29 (expressing wild type KRas); details: Homo sapiens, HT-29; HT29, colon, KRas WT
Method: as §1, §2, §3

[5] = test system: LS123 (expressing KRas G12S mutant); details: Homo sapiens, LS-123, colon
Method: as §1, §2, §3

[6] = test system: NCI-H1299 (expressing NRas Q61H mutant); details: Homo sapiens; NCI-H1299, NSCLC, Q61H (N-Ras)
Method: as §1, §2, §3

Measured: IC50

COc1cc(Nc2nc(-c3nccn3C)nn3cc(-c4ccn(C(C)C)n4)c(C)c23)ncn1 [Compound 6, 6-(1-Isopropyl-1H-pyrazol-3-yl)-N-(6-methoxypyrimidin-4-yl)-5-methyl-2-(1-methyl-1H-imidazol-2-yl)pyrrolo[2,1-f][1,2,4]triazin-4-amine]
< 150 nM: all assays above
